Data as given in article PMC4418665, “Cyclization of the Urokinase Receptor-Derived Ser-Arg-Ser-Arg-Tyr Peptide Generates a Potent Inhibitor of Trans-Endothelial Migration of Monocytes” (PLoS ONE, 2015).
Peptide text beside a SMILES is read from it.

Tests used:
FPR1 = target: T1, FPR1 (Homo sapiens, UniProt P21462); assay: Agonist-induced FPR1 internalization at 37°C, fluorescence microscopy, THP-1 cells; type: cell-based; set-up: host or cells: THP-1 human monocytic leukemia cells; details: excess (100 nM) unlabelled peptide 30 min at 37°C, then 10 nM FITC-fMLF 30 min at 37°C
T1 sequence (P21462 1-350): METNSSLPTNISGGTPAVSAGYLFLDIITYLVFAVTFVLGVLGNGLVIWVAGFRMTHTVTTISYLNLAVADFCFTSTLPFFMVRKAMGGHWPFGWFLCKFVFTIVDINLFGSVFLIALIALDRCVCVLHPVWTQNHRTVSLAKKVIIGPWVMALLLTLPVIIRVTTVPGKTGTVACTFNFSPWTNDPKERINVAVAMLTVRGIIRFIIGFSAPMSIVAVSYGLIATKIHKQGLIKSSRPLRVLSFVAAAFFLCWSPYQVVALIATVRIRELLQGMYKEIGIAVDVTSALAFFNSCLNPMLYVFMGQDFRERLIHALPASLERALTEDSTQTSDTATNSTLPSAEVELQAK
Procedure: Once documented that both SRSRY and [SRSRY] peptides compete with fMLF for binding to FPR1, we investigated the effect of [SRSRY] on the motility of monocytes. Preliminarily, we assessed whether [SRSRY] is a ligand of FPR1 on monocyte cell surface. […] (Fig 3A). When binding experiments were performed at 37°C, FPR1 appeared mainly localized within the cytoplasm, adjacent but outside the nucleus of THP-1 cells.
Fig 3 The peptide [SRSRY] binds to FPR1 on THP-1 cell surface. A. THP-1 cells (1.5 x10^6 cells/sample) were pre-incubated with diluents (None), 100 nM fMLF, 100 nM SRSRY or 100 nM [SRSRY] peptides for 60 minutes at 4°C, then exposed to 10 nM N-formyl-Nle-Leu-Phe-Nle-Tyr-Lys-fluorescein (FITC-fMLF) for additional 60 minutes at 4°C. Fluorimetric measurement of cell-associated fluorescence was assed using 485 nm excitation and 535 nm emission filters. Data are expressed as a percentage of the fluorescence associated to THP-1 cells exposed to FITC-fMLF alone (None = 100%) and represent a mean ± SD from triplicates. *Statistical significance (t-test) against None with p<0.001. B. THP-1 cells incubated with diluents (None), 100 nM fMLF, 100 nM SRSRY or 100 nM [SRSRY] peptides for 30 minutes at 37°C and exposed to 10 nM FITC-fMLF for additional 30 minutes at 37°C. Scale bar: 5 μm. Original magnifications: 630x. […]

THP-1 cells = type: cell-based, human; details: 10 nM peptide, 90 minutes, Boyden chamber
Procedure: The ability of [SRSRY] peptide to affect THP-1 cell migration was analyzed in Boyden chambers using 10 nM fMLF or 10 nM SRSRY as chemoattractants. […] Inhibitory effect of [SRSRY] is dose-dependent, it starts in the high fM range, it seems to level off in the μM range and reaches an overall 50% reduction at 10 pM (Fig 4B). […] The mechanisms by which monocytes move when subjected to a chemoattractant gradient, involve changes in cytoskeletal organization, which provide both protrusive and contractile forces necessary for cell migration. To gain some insights into the cellular effects exerted by peptide [SRSRY], PMA-differentiated THP-1 cells were grown adherent onto a glass slide, exposed to diluents (CTL), 10 nM fMLF gradient plus/minus 10 nM [SRSRY] or 10 nM [RSSYR] in a DUNN chamber for 6 hours as described, and then stained with rhodamine-phalloidin. A total of 100 cells/sample that translocated to the area corresponding to the ring separating the inner and outer chambers were counted and their cytoskeletal organization examined with a fluorescence-inverted microscope. […] Conversely, the addition of peptide [SRSRY] to the fMLF gradient reduced cell elongation and alignment with the appearance of F-actin linear distribution along the plasma membranes in the 60% of cell population (Fig 4C). In order to verify whether the inhibitory effect of [SRSRY] also occurs on primary monocytes and/or macrophages, human monocytes and macrophages were subjected to cell migration assays in Boyden and DUNN chambers, respectively. […] Unlike [RSSYR], 10 nM [SRSRY] reduced both fMLF- and SRSRY- directed monocyte migration by 50% and 49%, respectively. Next, primary macrophages were subjected to cell migration assay in DUNN chamber as above described. After 6 hours incubation, a total of 100 cells/sample that translocated to the area corresponding to the ring separating the inner and outer chambers were counted. Macrophage exposure to 10 nM fMLF elicited a considerable cell migration, reaching 230% of the basal cell migration (CTL), that was unchanged by 10 nM [[…]). […] These findings indicate that unlike linear SRSRY, the cyclic form of the chemotactic sequence of uPAR inhibits monocyte motility and prevents cytoskeletal re-organization occurring during migration of macrophages. {[…]] inhibits migration of monocytes and macrophages in a dose-dependent manner causing a marked inhibition of fMLF-dependent cytoskeletal re-organization. A. THP-1 cells (1x10^5 cells/well) were allowed to migrate for 90 minutes at 37°C, 5% CO2 in Boyden chambers toward 10 nM fMLF, or 10 nM SRSRY in the presence of diluents (None), 10 nM [RSSYR] or 10 nM [SRSRY]. […] Data are expressed as the means ± SD of three independent experiments, performed in duplicate. *Statistical significance against None with p<0.001. B. THP-1 and PMA-stimulated THP-1 cell migration toward 10 nM fMLF plus increasing concentrations of [SRSRY] in Boyden chambers. The extent of cell migration was expressed as a percentage of the net fMLF-dependent cell migration, considered as 100%. Data are expressed as the means ± SD of three independent experiments, performed in duplicate. C. Representative images of PMA-stimulated THP-1 cells allowed to migrate in a DUNN chamber toward diluents (CTL), or a fMLF chemotactic gradient, in the absence (None) or presence of 10 nM [SRSRY] or [RSSYR] peptides and stained with rhodamine-phalloidin. Scale bar: 10 μm. Original magnifications: 630x. D-E. Primary monocytes (1x10^5 cells/well) were allowed to migrate for 90 minutes at 37°C, 5% CO2 in Boyden chambers toward 10 nM fMLF (D), or 10 nM […]) in the presence of diluents (None), 10 nM [RSSYR] or 10 nM [SRSRY]. […] Data are expressed as the means ± SD of three independent experiments, performed in duplicate. *Statistical significance against None with p<0.001; **Statistical significance against None with p<0.0001. […]

primary macrophages = assay: Primary macrophage migration in DUNN chamber; type: cell-based, human; details: 10 nM peptide added to 10 nM fMLF gradient, 6 hours
Procedure: The ability of [SRSRY] peptide to affect THP-1 cell migration was analyzed in Boyden chambers using 10 nM fMLF or 10 nM SRSRY as chemoattractants. […] Inhibitory effect of [SRSRY] is dose-dependent, it starts in the high fM range, it seems to level off in the μM range and reaches an overall 50% reduction at 10 pM (Fig 4B). […] The mechanisms by which monocytes move when subjected to a chemoattractant gradient, involve changes in cytoskeletal organization, which provide both protrusive and contractile forces necessary for cell migration. […] A total of 100 cells/sample that translocated to the area corresponding to the ring separating the inner and outer chambers were counted and their cytoskeletal organization examined with a fluorescence-inverted microscope. […] After 6 hours incubation, a total of 100 cells/sample that translocated to the area corresponding to the ring separating the inner and outer chambers were counted. […] Data are expressed as the means ± SD of three independent experiments, performed in duplicate. *Statistical significance against None with p<0.001. […] The extent of cell migration was expressed as a percentage of the net fMLF-dependent cell migration, considered as 100%. Data are expressed as the means ± SD of three independent experiments, performed in duplicate. […]

internalization of fluorescent agonist in THP-1 cells (FPR1): did not exert such effect
SMILES: N=C(N)NCCC[C@@H]1NC(=O)[C@H](CCCNC(=N)N)NC(=O)[C@H](Cc2ccc(O)cc2)NC(=O)[C@H](CO)NC(=O)[C@H](CO)NC1=O [[RSSYR], [Arg-Ser-Ser-Tyr-Arg]] (cyclo(RRSSY))
reduction of THP-1 monocyte migration toward 10 nM SRSRY (THP-1 cells): did not exert any effect
reduction of THP-1 monocyte migration toward 10 nM fMLF (THP-1 cells): did not exert any effect
effect on fMLF-directed migration of primary macrophages (primary macrophages): unchanged
